Measured values: ChEMBL document CHEMBL1201862, “PubChem BioAssay data set” (2004)
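Dose response: 5 concentrations. Exposure: 48 h. Format: 96-well plates. Endpoint: linear interpolation; highest concentration if not reached. GI50 = concentration required for 50% inhibition of growth.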 Activity calls are given as the source filed them. Rule as the data show it: active = GI50 up to about 1.1 µM and inactive = higher.

How the values were obtained:
Experiment in all cases: DTP human tumour cell line panel, 48 h
786-0 = test system: 786-0
A498 = test system: A498
A549 = test system: A549
ACHN = test system: ACHN
CCRF-CEM = test system: CCRF-CEM
COLO 205 = test system: COLO 205
DLD-1 = test system: DLD-1
DMS-114 = test system: DMS-114
DMS-273 = test system: DMS-273
EKVX = test system: EKVX
HCC 2998 = test system: HCC 2998
HCT-116 = test system: HCT-116
HCT-15 = test system: HCT-15
HL-60 = test system: HL-60
HOP-62 = test system: HOP-62
HT-29 = test system: HT-29
IGROV-1 = test system: IGROV-1
K562 = test system: K562
KM-20L2 = test system: KM-20L2
LOX IMVI = test system: LOX IMVI
LXFL 529 = test system: LXFL 529
M14 = test system: M14
MOLT-4 = test system: MOLT-4
Malme-3M = test system: Malme-3M
NCI-H226 = test system: NCI-H226
NCI-H23 = test system: NCI-H23
NCI-H460 = test system: NCI-H460
OVCAR-3 = test system: OVCAR-3
OVCAR-4 = test system: OVCAR-4
OVCAR-8 = test system: OVCAR-8
RPMI-8226 = test system: RPMI-8226
RXF 393 = test system: RXF 393
RXF 631 = test system: RXF 631
SF-268 = test system: SF-268
SF-295 = test system: SF-295
SF-539 = test system: SF-539
SK-MEL-28 = test system: SK-MEL-28
SK-MEL-2 = test system: SK-MEL-2
SK-MEL-5 = test system: SK-MEL-5
SN12C = test system: SN12C
SNB-19 = test system: SNB-19
SNB-75 = test system: SNB-75
SR = test system: SR
SW-620 = test system: SW-620
TK-10 = test system: TK-10
U-251 = test system: U-251
UACC-257 = test system: UACC-257
UACC-62 = test system: UACC-62
UO-31 = test system: UO-31
XF498 = test system: XF498
CAKI-1 = test system: CAKI-1
HOP-18 = test system: HOP-18
HOP-92 = test system: HOP-92
KM12 = test system: KM12
M19-MEL = test system: M19-MEL
NCI-H522 = test system: NCI-H522
OVCAR-5 = test system: OVCAR-5
SK-OV-3 = test system: SK-OV-3
SNB-78 = test system: SNB-78

Measured: GI50

Cc1c(NC(=O)C(C)(C)Br)c(=O)oc2c(C)c3occc(=O)c3cc12
96.6 µM: HCT-15
inactive: 786-0 53.7 µM | A498 18.1 µM | A549 68.5 µM | ACHN 45.8 µM | CCRF-CEM 28.2 µM | COLO 205 > 100 µM | DLD-1 59 µM | DMS-114 44.1 µM | DMS-273 77.3 µM | EKVX > 100 µM | HCC 2998 > 100 µM | HCT-116 59.4 µM | HL-60 > 100 µM | HOP-62 29.6 µM | HT-29 90.2 µM | IGROV-1 57 µM | K562 64.3 µM | KM-20L2 41.4 µM | LOX IMVI 76.9 µM | LXFL 529 42.9 µM | M14 48.9 µM | MOLT-4 37.1 µM | Malme-3M 31.1 µM | NCI-H226 23.3 µM | NCI-H23 81.5 µM | NCI-H460 58.9 µM | OVCAR-3 > 100 µM | OVCAR-4 49.8 µM | OVCAR-8 55 µM | RPMI-8226 45.3 µM | RXF 393 55.3 µM | RXF 631 48.1 µM | SF-268 64.9 µM | SF-295 22.9 µM | SF-539 43.7 µM | SK-MEL-28 > 100 µM | SK-MEL-2 59.6 µM | SK-MEL-5 29.7 µM | SN12C 52.4 µM | SNB-19 87.9 µM | SNB-75 35.7 µM | SR 43 µM | SW-620 > 100 µM | TK-10 > 100 µM | U-251 72.9 µM | UACC-257 > 100 µM | UACC-62 67.5 µM | UO-31 21.3 µM | XF498 27.3 µM

Cc1ccc2sc3cc(=O)cc(C)c-3nc2c1
inactive: 786-0 55.1 µM | A549 36.7 µM | ACHN 29.2 µM | CAKI-1 28.5 µM | CCRF-CEM 17.8 µM | COLO 205 61.9 µM | DLD-1 76 µM | DMS-114 19.6 µM | DMS-273 43.3 µM | EKVX 38.6 µM | HCC 2998 50.4 µM | HCT-116 80.2 µM | HL-60 13.8 µM | HOP-18 > 100 µM | HOP-62 65 µM | HOP-92 > 100 µM | HT-29 > 100 µM | IGROV-1 > 100 µM | K562 18.6 µM | KM-20L2 > 100 µM | KM12 49.7 µM | LXFL 529 28 µM | M14 > 100 µM | M19-MEL 16 µM | MOLT-4 15.7 µM | NCI-H226 > 100 µM | NCI-H23 45.3 µM | NCI-H460 > 100 µM | NCI-H522 20.3 µM | OVCAR-3 57.3 µM | OVCAR-4 14.2 µM | OVCAR-5 > 100 µM | OVCAR-8 37.9 µM | RXF 631 54.1 µM | SF-268 47.2 µM | SF-295 33.1 µM | SF-539 37.9 µM | SK-MEL-28 > 100 µM | SK-MEL-2 > 100 µM | SK-MEL-5 16.6 µM | SK-OV-3 > 100 µM | SN12C 60.4 µM | SNB-19 40.8 µM | SNB-75 > 100 µM | SNB-78 > 100 µM | SR 28.8 µM | SW-620 > 100 µM | TK-10 > 100 µM | U-251 32.7 µM | UACC-257 74.3 µM | UACC-62 14.3 µM | UO-31 26.1 µM
40.2 µM: HCT-15

COC(=O)CCC(=O)C(C#N)c1ccc(Cl)cc1Cl (stereo not given)
> 100 µM: HCT-15
inactive: 786-0 > 100 µM | A549 > 100 µM | ACHN > 100 µM | CAKI-1 > 100 µM | CCRF-CEM > 100 µM | DLD-1 > 100 µM | DMS-273 > 100 µM | EKVX > 100 µM | HCT-116 > 100 µM | HL-60 > 100 µM | HOP-92 > 100 µM | HT-29 4.97 µM | IGROV-1 > 100 µM | K562 > 100 µM | KM-20L2 > 100 µM | KM12 > 100 µM | LOX IMVI > 100 µM | LXFL 529 > 100 µM | M14 > 100 µM | M19-MEL > 100 µM | MOLT-4 > 100 µM | Malme-3M > 100 µM | NCI-H226 > 100 µM | NCI-H23 > 100 µM | NCI-H522 > 100 µM | OVCAR-3 > 100 µM | RPMI-8226 > 100 µM | RXF 631 > 100 µM | SF-268 > 100 µM | SF-295 > 100 µM | SF-539 > 100 µM | SK-MEL-28 > 100 µM | SK-MEL-2 > 100 µM | SK-OV-3 > 100 µM | SN12C > 100 µM | SNB-19 > 100 µM | SNB-75 > 100 µM | SNB-78 > 100 µM | SR > 100 µM | SW-620 > 100 µM | TK-10 > 100 µM | U-251 > 100 µM | UACC-257 > 100 µM | UACC-62 > 100 µM | UO-31 > 100 µM | XF498 > 100 µM
